Results taken from publication PMC4501006, “Preliminary Characterization and In Vivo Studies of Structurally Identical ^18F- and ^125I-Labeled Benzyloxybenzenes for PET/SPECT Imaging of β-Amyloid Plaques” (Scientific Reports, 2015).

How the values were obtained:
[1] = Partition coefficient determination (log D); format: physicochemical
Procedure: An ideal Aβ imaging probe would combine a high binding affinity to Aβ plaques and excellent pharmacokinetics with high initial brain uptake and rapid washout from normal brain regions. Thus, the partition coefficients of these four radiolabeled ligands were determined to estimate their ability to penetrate the BBB.

[2] = target: Aβ plaques (Homo sapiens, UniProt P05067); experiment: In vitro autoradiography on AD human brain sections; format: binding
Source text: Figure 5 In vitro autoradiography of [^125I]7a (a–d), [^18F]7a (e–h), [^125I]12a (i–l) and [^18F]12a (m–p).

[3] = In vivo biodistribution in normal ICR mice; conditions: i.v.
Procedure: Histograms of brain and intestine uptake were presented in Fig. 6 for comparison, while detailed data concerning the in vivo biodistribution in normal ICR mice were collected in Table S3 in Supplementary information. […] [^125I]7a and [^125I]12a were rapidly cleared from the normal brain, with only small amounts of radioactivity remaining at 60 min post-injection (0.55% ID/g for [^125I]7a and 0.37% ID/g for [^125I]12a). […] In addition, no significant deiodination was observed (less than 0.5% ID in the thyroid at 60 min).
As the specific activity of ^18F-labeled ligands (about 60 GBq/μmol) was slightly lower than that of corresponding no-carrier-added ^125I-labeled ligands (81 GBq/μmol), the impact of specific activity on pharmacokinetics was studied. In vivo biodistribution of radioactivity after injection of carrier-added [^125I]7a with equal specific activity to corresponding [^18F]7a (60 GBq/μmol) was conducted in normal ICR mice through the same procedure.
A structural model of an Aβ fiber (PDB ID: 2LMO) derived from solid state NMR was downloaded from the RCSB Protein Data Bank (www.rcsb.org/pdb). Geometric optimization was performed using Gaussian 09 at the B3LYP/6–31 G and 3-21G levels in the water phase. Molecular docking was performed using AutoDock4.0, and the docking results were graphed with VMD 1.9.1 software. SYBYL-X 1.1 software was used to predict the binding affinities with previously constructed 3D-QSAR models. All reagents for chemical synthesis were used as purchased without further purification. [^125I]NaI was purchased from PerkinElmer and ^18F^– was kindly provided by the Chinese PLA General Hospital. ^1H and ^13C NMR spectra were recorded on a Bruker Avance III NMR spectrometer (400 MHz for ^1H; 101 MHz for ^13C) in CDCl3 or DMSO-d6 solutions at room temperature. Mass spectra were acquired with a GCT CA127 Micronass UK instrument. X-ray crystallographic data of compound 12a were collected on a Bruker Smart APEX II diffractometer (Bruker Co., Germany) and deposited at the Cambridge Crystallographic Data Centre as supplementary publication (no. CCDC 1063679). HPLC analysis was performed on a Shimadzu SCL-20 AVP equipped with a Bioscan Flow Count 3200 NaI/PMT γ-radiation scintillation detector and a SPD-20A UV detector, λ = 254 nm. A Venusil MP C18 reverse phase column (Agela Technologies, 5 μm, 4.6 × 250 mm) was used for separations and purity determinations with a binary gradient system (acetonitrile: water = 80%: 20%) at a 1.0 mL/min flow rate. Fluorescent observation was performed on the Axio Observer Z1 inverted fluorescence microscope (Zeiss, Germany) equipped with a DAPI filter set (excitation, 405 nm). Post-mortem brain sections from an autopsy-confirmed AD subject and a control subject were acquired from the Chinese Brain Bank. Transgenic mice (APPswe/PSEN1, male) and wild-type mice (C57BL6, male) were purchased from the Institute of Laboratory Animal Science, Chinese Academy of Medical Sciences. Normal ICR mice (20–22 g, male) were used for in vivo biodistribution, dynamic PET/CT and SPECT/CT scans, and biostability experiments. All experiments on mice were performed in accordance with the guidelines approved by the animal care committee of Beijing Normal University and Xiamen University.

Chain of Aβ plaques (P05067 672-711 limits assumed): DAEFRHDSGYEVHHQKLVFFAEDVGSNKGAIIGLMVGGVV

logD [1]: 3.84 ± 0.07
in vitro autoradiography, plaque labeling [2]: specifically label Aβ deposits
brain2 min/brain60 min ratio [3]: 1.6
Biodistribution of radioactivity, blood ([3]; 2 min): 7.53 ± 0.80 % injected dose per gram
Biodistribution of radioactivity, bone ([3]; 2 min): 2.55 ± 0.29 % injected dose per gram
Biodistribution of radioactivity, brain ([3]; 2 min): > 5 % injected dose per gram
Biodistribution of radioactivity, heart ([3]; 2 min): 9.11 ± 1.07 % injected dose per gram
Biodistribution of radioactivity, intestine ([3]; 2 min): 7.72 ± 0.54 % injected dose per organ
Biodistribution of radioactivity, kidney ([3]; 2 min): 11.63 ± 0.86 % injected dose per gram
Biodistribution of radioactivity, liver ([3]; 2 min): 13.20 ± 1.45 % injected dose per gram
Biodistribution of radioactivity, lung ([3]; 2 min): 9.17 ± 1.10 % injected dose per gram
Biodistribution of radioactivity, muscle ([3]; 2 min): 5.38 ± 0.47 % injected dose per gram
Biodistribution of radioactivity, pancreas ([3]; 2 min): 8.75 ± 0.33 % injected dose per gram
Biodistribution of radioactivity, spleen ([3]; 2 min): 4.98 ± 0.32 % injected dose per gram
Biodistribution of radioactivity, stomach ([3]; 2 min): 1.70 ± 0.08 % injected dose per organ
Biodistribution of radioactivity, brain ([3]; 2 min, listed as [18F]12a): 6.76 ± 0.41 % injected dose per gram
Biodistribution of radioactivity, blood ([3]; 10 min): 4.55 ± 0.36 % injected dose per gram
Biodistribution of radioactivity, bone ([3]; 10 min): 2.13 ± 0.27 % injected dose per gram
Biodistribution of radioactivity, brain ([3]; 10 min): 5.73 ± 0.44 % injected dose per gram
Biodistribution of radioactivity, heart ([3]; 10 min): 4.40 ± 0.36 % injected dose per gram
Biodistribution of radioactivity, intestine ([3]; 10 min): 6.94 ± 0.53 % injected dose per organ
Biodistribution of radioactivity, kidney ([3]; 10 min): 6.19 ± 0.46 % injected dose per gram
Biodistribution of radioactivity, liver ([3]; 10 min): 4.74 ± 0.36 % injected dose per gram
Biodistribution of radioactivity, lung ([3]; 10 min): 4.91 ± 0.60 % injected dose per gram
Biodistribution of radioactivity, muscle ([3]; 10 min): 3.92 ± 0.41 % injected dose per gram
Biodistribution of radioactivity, pancreas ([3]; 10 min): 3.96 ± 0.27 % injected dose per gram
Biodistribution of radioactivity, spleen ([3]; 10 min): 3.55 ± 0.26 % injected dose per gram
Biodistribution of radioactivity, stomach ([3]; 10 min): 1.54 ± 0.32 % injected dose per organ
Biodistribution of radioactivity, blood ([3]; 30 min): 5.91 ± 0.33 % injected dose per gram
Biodistribution of radioactivity, bone ([3]; 30 min): 3.31 ± 0.21 % injected dose per gram
Biodistribution of radioactivity, brain ([3]; 30 min): 5.02 ± 0.32 % injected dose per gram
Biodistribution of radioactivity, heart ([3]; 30 min): 5.41 ± 0.36 % injected dose per gram
Biodistribution of radioactivity, intestine ([3]; 30 min): 8.09 ± 0.43 % injected dose per organ
Biodistribution of radioactivity, kidney ([3]; 30 min): 6.19 ± 0.37 % injected dose per gram
Biodistribution of radioactivity, liver ([3]; 30 min): 4.84 ± 0.28 % injected dose per gram
Biodistribution of radioactivity, lung ([3]; 30 min): 5.34 ± 0.31 % injected dose per gram
Biodistribution of radioactivity, muscle ([3]; 30 min): 4.71 ± 0.50 % injected dose per gram
Biodistribution of radioactivity, pancreas ([3]; 30 min): 4.55 ± 0.36 % injected dose per gram
Biodistribution of radioactivity, spleen ([3]; 30 min): 4.29 ± 0.36 % injected dose per gram
Biodistribution of radioactivity, stomach ([3]; 30 min): 2.09 ± 0.32 % injected dose per organ
Biodistribution of radioactivity, blood ([3]; 60 min): 5.87 ± 0.19 % injected dose per gram
Biodistribution of radioactivity, bone ([3]; 60 min): 3.51 ± 0.78 % injected dose per gram
Biodistribution of radioactivity, brain ([3]; 60 min): 4.26 % injected dose per gram
Biodistribution of radioactivity, heart ([3]; 60 min): 4.76 ± 0.40 % injected dose per gram
Biodistribution of radioactivity, intestine ([3]; 60 min): 8.50 ± 1.23 % injected dose per organ
Biodistribution of radioactivity, kidney ([3]; 60 min): 5.48 ± 0.41 % injected dose per gram
Biodistribution of radioactivity, liver ([3]; 60 min): 4.64 ± 0.21 % injected dose per gram
Biodistribution of radioactivity, lung ([3]; 60 min): 5.19 ± 0.36 % injected dose per gram
Biodistribution of radioactivity, muscle ([3]; 60 min): 4.51 ± 0.49 % injected dose per gram
Biodistribution of radioactivity, pancreas ([3]; 60 min): 3.95 ± 0.25 % injected dose per gram
Biodistribution of radioactivity, spleen ([3]; 60 min): 3.87 ± 0.34 % injected dose per gram
Biodistribution of radioactivity, stomach ([3]; 60 min): 1.70 ± 0.29 % injected dose per organ
Biodistribution of radioactivity, brain ([3]; 60 min, listed as [18F]12a): 4.26 ± 0.18 % injected dose per gram
Compound: [18F]CCOc1ccc(COc2ccc(I)cc2)cc1 [[^18F]12a]
